According to ChEMBL document CHEMBL5370604, “Identification of Micrococcin P2-Derivatives as Antibiotic Candidates against Two Gram-Positive Pathogens” (J Med Chem, 2023):
In brackets after ≈: the same amount, converted by molar mass. Activity calls are given as the source filed them. The rule behind the calls is not given here.

Key:
Staphylococcus aureus [1] = assay: Antibacterial activity against Staphylococcus aureus ATCC 4330 assessed as inhibition of bacterial growth measured after 16 to 24 hrs by CLSI based broth dilution method; type: functional; details: time 16-24 hrs
Clostridioides difficile [2] = assay: Antibacterial activity against Clostridioides difficile ATCC 43255 assessed as inhibition of bacterial growth measured after 24 hrs by CLSI based broth dilution method; type: functional
[3] = Aqueous kinetic solubility of the compound at pH 7.4 incubated for 2 hrs by UPLC-MS analysis; type: physicochemical; details: read-out: Kinetic_solubility
[4] = Effective permeability of the compound at pH 7.4 at 25 uM incubated for 5 hrs by skin PAMPA analysis; type: ADME; details: pH 7.4, 5 h
[5] = Effective permeability of the compound at pH 5.5 at 25 uM incubated for 5 hrs by skin PAMPA analysis; type: ADME; details: pH 5.5, 5 h
Staphylococcus aureus [6] = assay: Antibacterial activity against methicillin-resistant Staphylococcus aureus assessed as inhibition of bacterial growth measured after 16 to 24 hrs by CLSI based broth dilution method; type: functional; details: time 16-24 hrs
Staphylococcus aureus [7] = assay: Antibacterial activity against clinical isolate methicillin-resistant Staphylococcus aureus assessed as log reduction in CFU/ml at 16 times of MIC measured after 24 hrs by time killing analysis; type: functional
Staphylococcus aureus [8] = assay: (§1) In vivo antibacterial activity against methicillin-resistant Staphylococcus aureus KCCM 40511 ATCC 33593 infected in soft-skin tissue BALB/c mouse infection model assessed as reduction in total number of bacteria in wound area treated as ointment administered twice at 6 and 12 hrs and measured after 24 hrs relative to mupirocin; type: functional
Clostridioides difficile [9] = assay: Antibacterial activity against Clostridioides difficile ribotype 027 infected in colitis induced C57BL/6J mouse assessed as survival rate at 30 mg/kg, po qd pretreated with clindamycin followed by […] infection and compound addition measured on day 5; type: functional; details: ribotype 027, 120 h, time 5 day
Clostridioides difficile [10] = assay: Antibacterial activity against Clostridioides difficile ribotype 027 infected in colitis induced C57BL/6J mouse assessed as increase in survival rate without recurrence at 30 mg/kg, po qd pretreated with clindamycin followed by […] infection and compound addition measured on day 10 to day 11; type: functional, organism-based; details: time 10-11 day
Clostridioides difficile [11] = assay: Antibacterial activity against Clostridioides difficile RT001/ST3/A+B+ assessed as inhibition of bacterial growth measured after 24 hrs by CLSI based broth dilution method; type: functional
Clostridioides difficile [12] = assay: Antibacterial activity against Clostridioides difficile RT002/ST8/A+B+ assessed as inhibition of bacterial growth measured after 24 hrs by CLSI based broth dilution method; type: functional
Clostridioides difficile [13] = assay: Antibacterial activity against Clostridioides difficile RT012/ST54/A+B+ assessed as inhibition of bacterial growth measured after 24 hrs by CLSI based broth dilution method; type: functional
Clostridioides difficile [14] = assay: Antibacterial activity against Clostridioides difficile RT014/ST14/A+B+ assessed as inhibition of bacterial growth measured after 24 hrs by CLSI based broth dilution method; type: functional
Clostridioides difficile [15] = assay: Antibacterial activity against Clostridioides difficile RT015/ST35/A+B+ assessed as inhibition of bacterial growth measured after 24 hrs by CLSI based broth dilution method; type: functional
Clostridioides difficile [16] = assay: Antibacterial activity against Clostridioides difficile RT018/ST17/A+B+ assessed as inhibition of bacterial growth measured after 24 hrs by CLSI based broth dilution method; type: functional
Clostridioides difficile [17] = assay: Antibacterial activity against Clostridioides difficile RT293/ST129/A+B+ assessed as inhibition of bacterial growth measured after 24 hrs by CLSI based broth dilution method; type: functional
Clostridioides difficile [18] = assay: Antibacterial activity against Clostridioides difficile RT027/ST1/A+B+CDT+ assessed as inhibition of bacterial growth measured after 24 hrs by CLSI based broth dilution method; type: functional
Clostridioides difficile [19] = assay: Antibacterial activity against Clostridioides difficile NT/ST67/A+B+CDT+ assessed as inhibition of bacterial growth measured after 24 hrs by CLSI based broth dilution method; type: functional
Clostridioides difficile [20] = assay: Antibacterial activity against Clostridioides difficile RT130/ST5/A+B+CDT+ assessed as inhibition of bacterial growth measured after 24 hrs by CLSI based broth dilution method; type: functional
Clostridioides difficile [21] = assay: Antibacterial activity against Clostridioides difficile NT/ST221/A+B+CDT+ assessed as inhibition of bacterial growth measured after 24 hrs by CLSI based broth dilution method; type: functional
Clostridioides difficile [22] = assay: Antibacterial activity against Clostridioides difficile RT017/ST37/A-B+ assessed as inhibition of bacterial growth measured after 24 hrs by CLSI based broth dilution method; type: functional
Clostridioides difficile [23] = assay: Antibacterial activity against Clostridioides difficile RT078/ST11/A+B+CDT+ assessed as inhibition of bacterial growth measured after 24 hrs by CLSI based broth dilution method; type: functional
Staphylococcus aureus [24] = assay: as §1, with “as downregulation” for “as reduction in total number”, “of IL-6 levels” for “of bacteria”, “hrs by ELISA assay” for “hrs relative to mupirocin”; type: functional, organism-based
Staphylococcus aureus [25] = assay: as §1, with “as downregulation” for “as reduction in total number”, “of IL-1beta levels” for “of bacteria”, “hrs by ELISA assay” for “hrs relative to mupirocin”; type: functional, organism-based

C/C=C(\NC(=O)c1csc(-c2csc(-c3ccc4c(n3)-c3csc(n3)[C@H]([C@@H](C)O)NC(=O)c3csc(n3)[C@H](C(C)C)NC(=O)c3csc(n3)/C(=C/C)NC(=O)[C@H]([C@@H](C)O)NC(=O)c3csc-4n3)n2)n1)C(=O)NCCN1CCN(C(C)C)CC1 [listing 1 of 2 here]
MIC (Staphylococcus aureus [1]): 0.5 µg/mL (≈ 0.403 µM)
MIC (Clostridioides difficile [2]): 0.5 µg/mL (≈ 0.403 µM)
solubility kinetic at 2 h [3]: 150 µg/mL (≈ 121 µM)
Peff [4]: Impermeable
Peff [5]: Impermeable
MIC50 (Staphylococcus aureus [6]): 2 µg/mL (≈ 1.61 µM)
MIC90 (Staphylococcus aureus [6]): 4 µg/mL (≈ 3.22 µM)
Activity (Staphylococcus aureus [7]): >=3 log10CFU/ml
fold change (FC) (Staphylococcus aureus [8]): 1000

CCc1c(Cl)c(O)c(Cl)c(O)c1C(=O)O[C@H]1[C@H](O)[C@H](OC)[C@H](OC/C2=C\C=C\C[C@H](O)/C(C)=C/[C@H](CC)[C@@H](O[C@@H]3OC(C)(C)[C@@H](OC(=O)C(C)C)[C@H](O)[C@@H]3O)/C(C)=C/C(C)=C/C[C@@H]([C@@H](C)O)OC2=O)O[C@@H]1C [FIDAXOMICIN]
survival at 30 mg/kg (Clostridioides difficile [9]): 40%
Activity (Clostridioides difficile [10]): inactive

C/C=C(\NC(=O)c1csc(-c2csc(-c3ccc4c(n3)-c3csc(n3)[C@H]([C@@H](C)O)NC(=O)c3csc(n3)[C@H](C(C)C)NC(=O)c3csc(n3)/C(=C/C)NC(=O)[C@H]([C@@H](C)O)NC(=O)c3csc-4n3)n2)n1)C(=O)NCC(C)=O
MIC (Staphylococcus aureus [1]): 0.5 µg/mL (≈ 0.438 µM)
MIC (Clostridioides difficile [2]): 1 µg/mL (≈ 0.875 µM)
solubility kinetic at 2 h [3]: 0.07 µg/mL (≈ 0.0613 µM)

C/C=C1\NC(=O)[C@H]([C@@H](C)O)NC(=O)c2csc(n2)-c2ccc(-c3nc(-c4nc(C(=O)NC5(C(=O)NCCCN6C(=O)CNC6=O)CC5)cs4)cs3)nc2-c2csc(n2)[C@H]([C@@H](C)O)NC(=O)c2csc(n2)[C@H](C(C)C)NC(=O)c2csc1n2
MIC (Staphylococcus aureus [1]): 1 µg/mL (≈ 0.815 µM)
MIC (Clostridioides difficile [2]): 0.125 µg/mL (≈ 0.102 µM)
MIC (Clostridioides difficile [11]): 0.25 µg/mL (≈ 0.204 µM)
MIC (Clostridioides difficile [12]): 0.5 µg/mL (≈ 0.408 µM)
MIC (Clostridioides difficile [13]): 0.5 µg/mL (≈ 0.408 µM)
MIC (Clostridioides difficile [14]): 0.5 µg/mL (≈ 0.408 µM)
MIC (Clostridioides difficile [15]): 0.25 µg/mL (≈ 0.204 µM)
MIC (Clostridioides difficile [16]): 0.25 µg/mL (≈ 0.204 µM)
MIC (Clostridioides difficile [17]): 0.5 µg/mL (≈ 0.408 µM)
MIC (Clostridioides difficile [18]): 0.5 µg/mL (≈ 0.408 µM)
MIC (Clostridioides difficile [19]): 0.5 µg/mL (≈ 0.408 µM)
MIC (Clostridioides difficile [20]): 0.5 µg/mL (≈ 0.408 µM)
MIC (Clostridioides difficile [21]): 0.5 µg/mL (≈ 0.408 µM)
MIC (Clostridioides difficile [22]): 0.5 µg/mL (≈ 0.408 µM)
MIC (Clostridioides difficile [23]): 0.5 µg/mL (≈ 0.408 µM)

C/C=C(\NC(=O)c1csc(-c2csc(-c3ccc4c(n3)-c3csc(n3)[C@H]([C@@H](C)O)NC(=O)c3csc(n3)[C@H](C(C)C)NC(=O)c3csc(n3)/C(=C/C)NC(=O)[C@H]([C@@H](C)O)NC(=O)c3csc-4n3)n2)n1)C(=O)NCCN1CCN(C(C)C)CC1 [listing 2 of 2 here]
Activity (Staphylococcus aureus [24]): Active
Activity (Staphylococcus aureus [25]): Active
